Results on one compound are retold here after patent USRE48253E1, “Methotrexate adjuvants to reduce toxicity and methods for using the same” (Tosk, Inc., priority 2008, dated 2020).

Data set [1] has as its target mouse small intestinal UPase enzyme (Mus musculus, UniProt P52624). Kind of data set: UPase inhibition in mouse small intestinal tissue homogenate (HPLC of uracil). Format: biochemical. Here is the method: A range of TK-112690 doses were studied for the their ability to prevent metabolic breakdown of uridine through the in vitro inhibition of mouse and human small intestinal UPase enzyme. UPase activity was determined by HPLC analysis using UV detection of uracil concentration (UPase catabolizes uridine into uracil and ribose-1-phosphate). The UPase enzyme material was prepared from homogenized mouse and human being small intestinal tissue. TK-112690 was dissolved in water (50 mg/ml) and analyzed for UPase inhibition in aqueous solution containing 5 mM uridine, 0.01 M Tris, 0.01 M phosphate, 1 mM EDTA, and 1 mM DTT. Reactions were performed at 37° C. at pH of 7.3.
The aim of this study was to evaluate TK-112690 […] as an inhibitor of uridine phosphorylase (UPase) enzyme activity. The range of TK-112690 doses studied for ability to prevent metabolic breakdown of uridine, through the in vitro inhibition of mouse and human small intestinal UPase enzyme, was 0, 0.1, 0.5, 1, 5, 10, 50, 100, 500, 1000, 5000 and 10000 μM). Detection of UPase activity was determined by HPLC analysis using UV detection of uracil concentration (UPase catabolizes uridine into uracil and ribose-1-phosphate).
The UPase enzyme material was prepared from homogenized mouse and human being small intestinal tissue. TK-112690 was dissolved in water (50 mg/ml) and analyzed for UPase inhibition in aqueous solution containing 5 mM uridine, 0.01 M Tris, 0.01 M phosphate, 1 mM EDTA, and 1 mM DTT. Reactions were performed at 37° C. at pH of 7.3.
TK-11260 inhibition of mouse and human UPase was analyzed by reverse phase HPLC using UV detection. HPLC analysis was performed at ambient temperature with a Water 2695 Alliance system equipped with a C18 ECONOSIL 5 U ALLtech column. 20 μl of UPase reaction samples were auto-injected onto column. Mobile phase consisted of water eluting for first 2.5 ml and acetonitrile gradient to 100% in 12.5 ml (flow rate 0.5 ml/min). The outlet fluent was monitored by UV absorption in the range of 240-320 nm. UPase enzymatic activity was based on the AUC of the uracil peaks.

The next data set deals with AS283 cells. Kind of data set: Cell Culture Study II: MTX cytotoxicity, CellTiter-Glo. The class given is cell-based, human. As to conditions: TK-112690 1, 10, 100 μM with MTX 0.01-100 μM, 72 hours. As for the experimental part:
In this study, AS283 cells were grown in RPMI-1640 supplemented with L-glutamine dipeptide, sodium pyruvate, HEPES, and 10% FBS. AS283 cells were used to seed three 96-well plates with 10,000 cells/well in a total volume of 50 μL. Medium alone wells were seeded 100 μL medium. Plates were incubated overnight. The following day, 25 μL of the TK-112690 and MTX stock solutions were added to the appropriate wells. TK-112690 was added first, followed by MTX in all wells. 25 μL of vehicle was added to TK-112690 alone wells. 25 μL of vehicle and 25 μL medium were added to vehicle control wells, and 50 μL medium was added to cell control wells. Cell viability was measured using CellTiter-Glo and DOX (10 μM) was used as a reference standard. The plates were incubated at 37° C., 5% CO2 for 72 hours then removed from the incubator and placed on the bench at room temperature for 30 min. The plates were not stacked or shaken. […] Luminescence was recorded on TriLux. […]
AS283 cells were grown in RPMI-1640 supplemented with L-glutamine dipeptide, sodium pyruvate, HEPES, and 10% FBS. […] Cell viability was measured using CellTiter-Glo and DOX (10 μM) was used as a reference standard.
The plates were incubated at 37° C., 5% CO2 for 72 hours then removed from the incubator and placed on the bench at room temperature for 30 min. […] Luminescence was recorded on TriLux.

“Also recorded” adds a separate entry of the source. Like-named read-outs stand apart in the source and are kept apart here. Where only a bound is given, the exact number is not on record here.

Chain of mouse small intestinal UPase enzyme (P52624 whole entry, looked up): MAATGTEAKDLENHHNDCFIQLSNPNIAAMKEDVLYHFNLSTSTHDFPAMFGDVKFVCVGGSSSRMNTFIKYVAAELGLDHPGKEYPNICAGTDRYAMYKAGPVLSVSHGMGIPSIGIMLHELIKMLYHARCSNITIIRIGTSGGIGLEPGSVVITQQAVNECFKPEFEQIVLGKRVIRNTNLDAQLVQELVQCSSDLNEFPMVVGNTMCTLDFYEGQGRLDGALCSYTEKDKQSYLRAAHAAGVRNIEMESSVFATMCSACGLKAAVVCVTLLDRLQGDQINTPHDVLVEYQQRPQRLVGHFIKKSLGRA

Take `Cc1cn2c(nc1=O)O[C@H]1[C@H](O)[C@@H](CO)O[C@H]12` [TK-112690, 2,2′-anhydro-5-methyluridine]: the IC50 in data set [1] (5 mM uridine, 37° C., pH 7.3, read-out: IC50, mouse small intestinal (murine) UPase) was 12.5 µM; in data set [1] (Table 3, murine UPase, test method of Experiment IX, read-out: UPase IC50), below 100 µM. In the data set with AS283 cells, the “effect on antiproliferative activity (cytotoxicity) of MTX” value is on record as “did not diminish the cytotoxicity of MTX; also recorded: not altered”.

For orientation: IC50 means the midpoint of a concentration-inhibition curve.
